Measured values from PMC9694544, “Conteltinib (CT-707) in patients with advanced ALK-positive non-small cell lung cancer: a multicenter, open-label, first-in-human phase 1 study” (BMC Medicine, 2022).

System: patients with ALK-positive NSCLC
Assay: Phase 1 safety assessment (TRAEs by CTCAE 4.03, DLT, MTD, RP2D)
Type: in vivo, human
Protocol: In the dose-escalation phase, the dose was escalated sequentially from a low to a high level with a 3 + 3 dose-escalation scheme based on the modified Fibonacci method. The starting dose for conteltinib was 50 mg orally quaque die (QD). Dose escalation proceeded to the next six cohorts of 100 mg, 200 mg, 300 mg, 450 mg, 600 mg, and 800 mg QD. For each dose, there was a PK lead-in phase where a single dose was given 7 days before cycle 1 day 1. Then, each dose was taken continuously in a 28-day cycle. The first cycle was for dose-limiting toxicity (DLT) investigation. When one of three patients experienced a DLT in a dose cohort, three additional patients were enrolled in the same dose cohort to assess the dose level in a total of six patients. All patients received conteltinib until disease progression, unacceptable toxicity, or withdrawal of consent. Patients received follow-up safety assessments for 30 days (±7 days) after the last conteltinib dose.
In the dose-expansion phase, each dose was taken continuously in a 28-day cycle. At the end of each cycle, a safety evaluation was conducted. If patients met the criteria to enter the next cycle, treatment with conteltinib was continued for subsequent cycles. All patients received conteltinib until disease progression, unacceptable toxicity, or withdrawal of consent. Patients received follow-up safety assessments for 30 days (±7 days) after the last dose of conteltinib.
The safety of conteltinib was assessed in safety set (SS) which was based on the National Cancer Institute Common Terminology Criteria for Adverse Events (CTCAE) version 4.03, laboratory tests, vital signs, ECG, and clinical observations. […] Adverse events (AEs) were judged to be treatment-related or not by investigators.
DLTs were AEs occurring in the first cycle of treatment (28 days) that were attributed to conteltinib, and the criteria were grade 4 neutropenia lasting ≥ 7 days, febrile neutropenia, grade 3 thrombocytopenia, grade 3 non-hematologic toxicity, and any conteltinib-related toxicity resulting in treatment delay > 2 weeks or discontinuation of conteltinib treatment at the assigned dose level. Besides, grade 3 nausea, vomiting, or diarrhea for ≥ 3 days or grade 4 nausea, vomiting, or diarrhea of any duration was considered as a DLT. The MTD was defined as the dose of conteltinib that would be closest to but not higher than a 33% probability of a DLT.

COc1cc(N2CCC(N3CCN(C)CC3)CC2)ccc1Nc1nc2c(c(Nc3ccccc3S(=O)(=O)NC(C)C)n1)CCN2 [Conteltinib]
TRAE Hypercholesterolemia (450 mg QD (n=14), Grade 1–2): 1 (7.1) n (%) | TRAE Hyperglycemia (450 mg QD (n=14), Grade 1–2): 1 (7.1) n (%) | TRAE Hypertriglyceridemia (450 mg QD (n=14), Grade 1–2): 2 (14.3) n (%) | TRAE Hyperuricemia (450 mg QD (n=14), Grade 1–2): 3 (21.4) n (%) | TRAE Hypoalbuminemia (450 mg QD (n=14), Grade 1–2): 2 (14.3) n (%) | TRAE Nausea (450 mg QD (n=14), Grade 1–2): 6 (42.9) n (%) | TRAE Proteinuria (450 mg QD (n=14), Grade 1–2): 1 (7.1) n (%) | TRAE Serum creatinine elevated (450 mg QD (n=14), Grade 1–2): 10 (71.4) n (%) | TRAE Vomiting (450 mg QD (n=14), Grade 1–2): 6 (42.9) n (%) | TRAE Weight loss (450 mg QD (n=14), Grade 1–2): 3 (21.4) n (%) | TRAE γ-GGT elevated (450 mg QD (n=14), Grade 1–2): 3 (21.4) n (%) | Patients with any TRAE (450 mg QD (n=14), Grade ≥ 3): 3 (21.4) n (%) | TRAE ALT elevated (450 mg QD (n=14), Grade ≥ 3): 0 (0.0) n (%) | TRAE AST elevated (450 mg QD (n=14), Grade ≥ 3): 0 (0.0) n (%) | TRAE Abdominal pain (450 mg QD (n=14), Grade ≥ 3): 0 (0.0) n (%) | TRAE Abdominal pain upper (450 mg QD (n=14), Grade ≥ 3): 0 (0.0) n (%) | TRAE Appetite decreased (450 mg QD (n=14), Grade ≥ 3): 0 (0.0) n (%) | TRAE Conjugated bilirubin elevated (450 mg QD (n=14), Grade ≥ 3): 0 (0.0) n (%) | TRAE Diarrhea (450 mg QD (n=14), Grade ≥ 3): 0 (0.0) n (%) | TRAE Hypercholesterolemia (450 mg QD (n=14), Grade ≥ 3): 0 (0.0) n (%) | TRAE Hyperglycemia (450 mg QD (n=14), Grade ≥ 3): 0 (0.0) n (%) | TRAE Hypertriglyceridemia (450 mg QD (n=14), Grade ≥ 3): 0 (0.0) n (%) | TRAE Hyperuricemia (450 mg QD (n=14), Grade ≥ 3): 0 (0.0) n (%) | TRAE Hypoalbuminemia (450 mg QD (n=14), Grade ≥ 3): 0 (0.0) n (%) | TRAE Nausea (450 mg QD (n=14), Grade ≥ 3): 0 (0.0) n (%) | TRAE Proteinuria (450 mg QD (n=14), Grade ≥ 3): 0 (0.0) n (%) | TRAE Serum creatinine elevated (450 mg QD (n=14), Grade ≥ 3): 0 (0.0) n (%) | TRAE Vomiting (450 mg QD (n=14), Grade ≥ 3): 0 (0.0) n (%) | TRAE Weight loss (450 mg QD (n=14), Grade ≥ 3): 0 (0.0) n (%) | TRAE γ-GGT elevated (450 mg QD (n=14), Grade ≥ 3): 3 (21.4) n (%) | Patients with any TRAE (600 mg QD (n=18), Grade 1–2): 18 (100) n (%) | TRAE ALT elevated (600 mg QD (n=18), Grade 1–2): 7 (38.9) n (%) | TRAE AST elevated (600 mg QD (n=18), Grade 1–2): 8 (44.4) n (%) | TRAE Abdominal pain (600 mg QD (n=18), Grade 1–2): 7 (38.9) n (%) | TRAE Abdominal pain upper (600 mg QD (n=18), Grade 1–2): 2 (11.1) n (%) | TRAE Appetite decreased (600 mg QD (n=18), Grade 1–2): 7 (38.9) n (%) | TRAE Conjugated bilirubin elevated (600 mg QD (n=18), Grade 1–2): 2 (11.1) n (%) | TRAE Diarrhea (600 mg QD (n=18), Grade 1–2): 16 (88.9) n (%) | TRAE Hypercholesterolemia (600 mg QD (n=18), Grade 1–2): 4 (22.2) n (%) | TRAE Hyperglycemia (600 mg QD (n=18), Grade 1–2): 6 (33.3) n (%) | TRAE Hypertriglyceridemia (600 mg QD (n=18), Grade 1–2): 8 (44.4) n (%) | TRAE Hyperuricemia (600 mg QD (n=18), Grade 1–2): 10 (55.6) n (%) | TRAE Hypoalbuminemia (600 mg QD (n=18), Grade 1–2): 3 (16.7) n (%) | TRAE Nausea (600 mg QD (n=18), Grade 1–2): 9 (50.0) n (%) | TRAE Proteinuria (600 mg QD (n=18), Grade 1–2): 8 (44.4) n (%) | TRAE Serum creatinine elevated (600 mg QD (n=18), Grade 1–2): 8 (44.4) n (%) | TRAE Vomiting (600 mg QD (n=18), Grade 1–2): 11 (61.1) n (%) | TRAE Weight loss (600 mg QD (n=18), Grade 1–2): 8 (44.4) n (%) | TRAE γ-GGT elevated (600 mg QD (n=18), Grade 1–2): 8 (44.4) n (%) | Patients with any TRAE (600 mg QD (n=18), Grade ≥ 3): 5 (27.8) n (%) | TRAE ALT elevated (600 mg QD (n=18), Grade ≥ 3): 0 (0.0) n (%) | TRAE AST elevated (600 mg QD (n=18), Grade ≥ 3): 0 (0.0) n (%) | TRAE Abdominal pain (600 mg QD (n=18), Grade ≥ 3): 0 (0.0) n (%) | TRAE Abdominal pain upper (600 mg QD (n=18), Grade ≥ 3): 0 (0.0) n (%) | TRAE Appetite decreased (600 mg QD (n=18), Grade ≥ 3): 0 (0.0) n (%) | TRAE Conjugated bilirubin elevated (600 mg QD (n=18), Grade ≥ 3): 0 (0.0) n (%) | TRAE Diarrhea (600 mg QD (n=18), Grade ≥ 3): 2 (11.1) n (%) | TRAE Hypercholesterolemia (600 mg QD (n=18), Grade ≥ 3): 0 (0.0) n (%) | TRAE Hyperglycemia (600 mg QD (n=18), Grade ≥ 3): 0 (0.0) n (%) | TRAE Hypertriglyceridemia (600 mg QD (n=18), Grade ≥ 3): 0 (0.0) n (%) | TRAE Hyperuricemia (600 mg QD (n=18), Grade ≥ 3): 0 (0.0) n (%) | TRAE Hypoalbuminemia (600 mg QD (n=18), Grade ≥ 3): 0 (0.0) n (%) | TRAE Nausea (600 mg QD (n=18), Grade ≥ 3): 0 (0.0) n (%) | TRAE Proteinuria (600 mg QD (n=18), Grade ≥ 3): 0 (0.0) n (%) | TRAE Serum creatinine elevated (600 mg QD (n=18), Grade ≥ 3): 1 (5.6) n (%) | TRAE Vomiting (600 mg QD (n=18), Grade ≥ 3): 0 (0.0) n (%) | TRAE Weight loss (600 mg QD (n=18), Grade ≥ 3): 0 (0.0) n (%) | TRAE γ-GGT elevated (600 mg QD (n=18), Grade ≥ 3): 1 (5.6) n (%) | DLT events (600 mg QD, cycle 1, dose-escalation phase, grade 3 serum creatinine elevated): One | Patients with any TRAE (800 mg QD (n=4), Grade 1–2): 3 (75.0) n (%) | TRAE ALT elevated (800 mg QD (n=4), Grade 1–2): 0 (0.0) n (%) | TRAE AST elevated (800 mg QD (n=4), Grade 1–2): 1 (25.0) n (%) | TRAE Abdominal pain (800 mg QD (n=4), Grade 1–2): 3 (75.0) n (%) | TRAE Abdominal pain upper (800 mg QD (n=4), Grade 1–2): 0 (0.0) n (%) | TRAE Appetite decreased (800 mg QD (n=4), Grade 1–2): 1 (25.0) n (%) | TRAE Conjugated bilirubin elevated (800 mg QD (n=4), Grade 1–2): 0 (0.0) n (%) | TRAE Diarrhea (800 mg QD (n=4), Grade 1–2): 3 (75.0) n (%) | TRAE Hypercholesterolemia (800 mg QD (n=4), Grade 1–2): 1 (25.0) n (%) | TRAE Hyperglycemia (800 mg QD (n=4), Grade 1–2): 1 (25.0) n (%) | TRAE Hypertriglyceridemia (800 mg QD (n=4), Grade 1–2): 2 (50.0) n (%) | TRAE Hyperuricemia (800 mg QD (n=4), Grade 1–2): 3 (75.0) n (%) | TRAE Hypoalbuminemia (800 mg QD (n=4), Grade 1–2): 1 (25.0) n (%) | TRAE Nausea (800 mg QD (n=4), Grade 1–2): 1 (25.0) n (%) | TRAE Proteinuria (800 mg QD (n=4), Grade 1–2): 2 (50.0) n (%) | TRAE Serum creatinine elevated (800 mg QD (n=4), Grade 1–2): 2 (50.0) n (%) | TRAE Vomiting (800 mg QD (n=4), Grade 1–2): 2 (50.0) n (%) | TRAE Weight loss (800 mg QD (n=4), Grade 1–2): 2 (50.0) n (%) | TRAE γ-GGT elevated (800 mg QD (n=4), Grade 1–2): 2 (50.0) n (%) | Patients with any TRAE (800 mg QD (n=4), Grade ≥ 3): 0 (0.0) n (%) | TRAE ALT elevated (800 mg QD (n=4), Grade ≥ 3): 0 (0.0) n (%) | TRAE AST elevated (800 mg QD (n=4), Grade ≥ 3): 0 (0.0) n (%) | TRAE Abdominal pain (800 mg QD (n=4), Grade ≥ 3): 0 (0.0) n (%) | TRAE Abdominal pain upper (800 mg QD (n=4), Grade ≥ 3): 0 (0.0) n (%) | TRAE Appetite decreased (800 mg QD (n=4), Grade ≥ 3): 0 (0.0) n (%) | TRAE Conjugated bilirubin elevated (800 mg QD (n=4), Grade ≥ 3): 0 (0.0) n (%) | TRAE Diarrhea (800 mg QD (n=4), Grade ≥ 3): 0 (0.0) n (%) | TRAE Hypercholesterolemia (800 mg QD (n=4), Grade ≥ 3): 0 (0.0) n (%) | TRAE Hyperglycemia (800 mg QD (n=4), Grade ≥ 3): 0 (0.0) n (%)
